Laboratory results taken from PMC9848351, “Discovery of new pyridine-quinoline hybrids as competitive and non-competitive PIM-1 kinase inhibitors with apoptosis induction and caspase 3/7 activation capabilities” (Journal of Enzyme Inhibition and Medicinal Chemistry, 2023).

Tests used:
[1] = system: caspase 3/7 in HepG-2 cells; test: Caspase 3/7 activation assay (Apo-ONE kit); format: cell-based, human; details: caspase 3/7, relative to untreated HepG2 cells; mean ± SEM
Excerpt: The percentage of caspase 3/7 activation was quantified using the Apo-ONE ® caspase 3/7 kit following the manufacturer’s instructions[27] (Supplementary Page S56).
It’s a fluorescence assay that measures caspase-3 and −7 activities. Caspase 3/7 activators are well known as apoptotic inducers.
Caspase 3/7 activation assay
The Apo-ONE ® caspase 3/7 kit following the manufacturer’s instructions was used for quantifying the percentage of caspase 3/7 activation. The fluorescence substrate present in the kit was cut by caspases to produce fluorescence signal. This signal was measured by the fluorescence omega microplate reader (BMG LabTech, Germany) at 490 nm excitation and 520 nm emission.
Data were expressed as mean ± standard error of the mean (SEM). Statistical significance was estimated by the multiple comparisons Tukey post-hoc analysis of variance (ANOVA) using the SPSS16 program. When p < 0.05, the differences were marked as statistically significant.
PIM-1 and PIM-2 kinase inhibitory activity
PIM-1 and PIM-2 kinase utilizing PIM-1 and PIM-2 Kinase Assay Kit – Promega Corporation catalog #V4032, following the manufacturer’s instructions 26 […]
Information Classification: General

[2] = system: Caco-2; test: Flow cytometric annexin V/PI analysis of apoptosis, Caco-2; format: cell-based; details: IC50 of compound, 72 h, mean ± SEM
Procedure: (§1) The apoptosis-dependent […] was determined by quantification of annexin-stained apoptotic cells using the FITC signal detector (FL1) against the phycoerythrin emission signal detector (FL2) (Supplementary Page S55). […]
(§2) MTT method was used for assaying cell viability 25. Twenty microliters of 5 mg/ml MTT (Sigma, USA) was added to each well and the plate was incubated at 37 °C for 3 h. Then MTT solution was removed, 100 µl DMSO was used and the absorbance of each well was measured with a microplate reader ( BMG LabTech, […]
(§3) Germany) at 570 nm. […]
(§4) Graphpad Instat software.
(§5) Determination of the anticancer activity
Anticancer effect of the above-mentioned compounds was evaluated using four human […]
cancer cell lines. […]
All cancer cells (5x10^3 cells/well) were seeded in sterile
96-well plates. After 24h, serial concentrations of the tested compounds and Dox were incubated with four cancer cell lines for 72 h at 37 °C in 5% CO2 incubator. MTT method was done as described above. The Graphpad Instat software was used for calculating the half maximal inhibitory concentration (IC50) values. […]
(§6) Flow cytometric analysis of apoptosis
(§7) Caco-2, PC-3 and NFS-60 cell lines. After trypsinization, the untreated and treated cells were incubated with annexin V/PI for 15 min. Then cells were fixed and incubated with streptavidin-fluorescein (5 µg/mL) for 15 min. The apoptosis-dependent anticancer effect was determined by quantification of annexin-stained apoptotic cells using the FITC signal detector (FL1) against the phycoerythrin emission signal detector (FL2). […]

[3] = system: HepG-2, Caco-2, NFS-60, and PC-3 cancer cell lines; format: cell-based, human
Procedure: as §1, §2, §3, §4, §5
Anticancer effect of the above-mentioned compounds was evaluated using four human cancer cell lines. Colon cancer cells (Caco-2) were maintained in DMEM (Lonza, USA) containing 10% FBS while myeloid leukemia cell line (NFS-60), liver cancer cell line (HepG-2) and prostate cancer cell line (PC-3) were cultured in RPMI-1640 (Lonza, USA) supplemented with 10% FBS. All cancer cells (5x10^3 cells/well) were seeded in sterile 96-well plates. […]
Caco-2, PC-3 and NFS-60 cell lines. […] The apoptosis-dependent anticancer effect was determined by quantification of annexin-stained apoptotic cells using the FITC signal detector (FL1) against the phycoerythrin emission signal detector (FL2). […]

[4] = system: HepG-2; test: Flow cytometric annexin V/PI analysis of apoptosis, HepG-2; format: cell-based, human; details: IC50 of compound, 72 h, mean ± SEM
[5] = system: PC-3; test: Flow cytometric annexin V/PI analysis of apoptosis, PC-3; format: cell-based, human; details: IC50 of compound, 72 h, mean ± SEM
Procedure: as §1
(§8) MTT method was used for assaying cell viability 25. Twenty microliters of 5 mg/ml MTT (Sigma, USA) was added to each well and the plate was incubated at […]
(§9) 37 °C for 3 h. […]
as §4, §5
(§10) Anticancer effect of the above-mentioned compounds was evaluated using four human cancer cell lines. Colon cancer cells (Caco-2) were maintained in DMEM (Lonza, USA) containing 10% FBS while myeloid leukemia cell line (NFS-60), liver cancer cell line (HepG-2) and prostate cancer cell line (PC-3) were cultured in RPMI-1640 (Lonza, USA) supplemented with 10% FBS. All cancer cells (5x10^3 cells/well) were seeded in sterile 96-well plates. After 24h, serial concentrations of the tested compounds and Dox were incubated with four cancer cell lines for 72 h at 37 °C in 5% CO2 incubator. MTT method was done as described above. The Graphpad Instat software was used for calculating the half maximal inhibitory concentration (IC50) values. […]
as §6, §7

[6] = system: normal human lung fibroblast Wi-38 cell line; test: MTT cytotoxicity on normal cells; format: cell-based; details: Homo sapiens; Wi-38, MTT; read-out: IC50 on human lung fibroblasts (Wi-38)
Method in brief: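 Wi-38 fibroblasts in DMEM with 10% FBS were seeded at 5x10^3 cells/well, left 24 h to attach, then exposed to serial compound concentrations for 72 h at 37 °C, 5% CO2. MTT was added for 3 h, formazan dissolved in DMSO and absorbance read at 570 nm. IC50 and EC100 (safe dose) were estimated from the concentration series.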

[7] = system: NFS-60; test: Flow cytometric annexin V/PI analysis of apoptosis, NFS-60; format: cell-based, human; details: IC50 of compound, 72 h, mean ± SEM
Procedure: as §1, §8, §9, §4, §5, §10, §6, §7

[8] = system: myeloid leukaemia cell line (NFS-60); test: MTT anticancer activity, NFS-60; format: cell-based; details: NFS-60, 72 h, MTT; mean ± SEM
Method in brief: (§11)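 Cells seeded at 5x10^3/well (Caco-2 in DMEM, others in RPMI-1640, 10% FBS) and exposed to serial compound concentrations for 72 h at 37 °C, 5% CO2, starting 24 h after seeding. MTT (3 h, 37 °C) read at 570 nm after DMSO solubilisation; IC50 calculated from viability.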

[9] = system: liver cancer cell line (HepG-2); test: MTT anticancer activity, HepG-2; format: cell-based, human; details: Homo sapiens, HepG2; HepG-2, 72 h, MTT; mean ± SEM
Method in brief: as §11

IC50 [8]: 33.2 nM
IC50 [9]: 50.4 nM
SMILES: COc1cccc2c1C(=O)c1c(O)c3c(c(O)c1C2=O)C[C@@](O)(C(=O)CO)C[C@@H]3O[C@H]1C[C@H](N)[C@H](O)[C@H](C)O1 [Dox, doxorubicin, reference compound]
Fold increase in caspase activity [1]: 1.61 ± 0.088 fold
total percentage of the apoptotic cell population, Caco-2 [2]: 36.08 ± 0.23%
apoptosis-dependent death / percentage of annexin-stained population cells [3]: less than 39%
total percentage of the apoptotic cell population, HepG-2 [4]: 39.265 ± 0.81%
total percentage of the apoptotic cell population, PC-3 [5]: 34.59 ± 0.21%
IC50 [6]: 26.6 nM
total percentage of the apoptotic cell population, NFS-60 [7]: 37.89 ± 0.28%
